Results as given in ChEMBL document CHEMBL1201862, “PubChem BioAssay data set” (2004).
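Five compound concentrations were applied to cells in 96-well plates for 48 hours; endpoints were derived by simple linear interpolation of the resulting dose-response curve. GI50: concentration for 50% inhibition of growth.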 Calls of active or inactive are those of the source. No stated cut-off is given here; in the data, active = GI50 up to about 1.1 µM and inactive = higher.

Experiments:
Assay in all cases: NCI anticancer screen, dose series, 48 h
[1] = test system: SK-MEL-5
[2] = test system: KM12
[3] = test system: HT-29
[4] = test system: RXF 393
[5] = test system: MCF7
[6] = test system: Malme-3M
[7] = test system: SW-620
[8] = test system: NCI-H460
[9] = test system: IGROV-1
[10] = test system: UACC-257
[11] = test system: SK-MEL-2
[12] = test system: TK-10
[13] = test system: MDA-MB-231
[14] = test system: M14
[15] = test system: MOLT-4
[16] = test system: Hs-578T
[17] = test system: UO-31
[18] = test system: CCRF-CEM
[19] = test system: SN12C
[20] = test system: HOP-62
[21] = test system: DU-145
[22] = test system: SNB-75
[23] = test system: NCI/ADR-RES
[24] = test system: A498
[25] = test system: NCI-H226
[26] = test system: SNB-19
[27] = test system: T47D
[28] = test system: U-251
[29] = test system: HCT-116
[30] = test system: OVCAR-5
[31] = test system: OVCAR-4
[32] = test system: SF-268
[33] = test system: NCI-H522
[34] = test system: OVCAR-3
[35] = test system: K562
[36] = test system: 786-0
[37] = test system: PC-3
[38] = test system: OVCAR-8
[39] = test system: SR
[40] = test system: HCC 2998
[41] = test system: NCI-H23
[42] = test system: BT-549
[43] = test system: ACHN
[44] = test system: COLO 205
[45] = test system: HCT-15
[46] = test system: HL-60
[47] = test system: MDA-N
[48] = test system: UACC-62
[49] = test system: SF-539
[50] = test system: EKVX
[51] = test system: CAKI-1
[52] = test system: A549
[53] = test system: SK-OV-3
[54] = test system: SK-MEL-28
[55] = test system: MDA-MB-435
[56] = test system: HOP-92
[57] = test system: LOX IMVI
[58] = test system: SF-295
[59] = test system: RPMI-8226

Cc1nc2c(ccc3[nH]c4ccccc4c32)s1
GI50 [1]: 15.2 µM (inactive)
GI50 [2]: 25.5 µM (inactive)
GI50 [3]: 16.9 µM (inactive)
GI50 [4]: 29.8 µM (inactive)
GI50 [5]: 26.7 µM (inactive)
GI50 [6]: 31.4 µM (inactive)
GI50 [7]: 19.7 µM (inactive)
GI50 [8]: 20.6 µM (inactive)
GI50 [9]: 21.9 µM (inactive)
GI50 [10]: 35.6 µM (inactive)
GI50 [11]: 19.9 µM (inactive)
GI50 [12]: 29.5 µM (inactive)
GI50 [13]: 14.5 µM (inactive)
GI50 [14]: 18.9 µM (inactive)
GI50 [15]: 12.6 µM (inactive)
GI50 [16]: 16.3 µM (inactive)
GI50 [17]: 26.2 µM (inactive)
GI50 [18]: 18.8 µM (inactive)
GI50 [19]: 24 µM (inactive)
GI50 [20]: 17.4 µM (inactive)
GI50 [21]: 33.8 µM (inactive)
GI50 [22]: 32.9 µM (inactive)
GI50 [23]: 34.8 µM (inactive)
GI50 [24]: 17.8 µM (inactive)
GI50 [25]: 14.8 µM (inactive)
GI50 [26]: 37.8 µM (inactive)
GI50 [27]: 20.2 µM (inactive)
GI50 [28]: 20.5 µM (inactive)
GI50 [29]: 17.4 µM (inactive)
GI50 [30]: 19.3 µM (inactive)
GI50 [31]: 25.5 µM (inactive)
GI50 [32]: 29.2 µM (inactive)
GI50 [33]: 15.9 µM (inactive)
GI50 [34]: 20.6 µM (inactive)
GI50 [35]: 22.3 µM (inactive)
GI50 [36]: 26.1 µM (inactive)
GI50 [37]: 17.7 µM (inactive)
GI50 [38]: 30.1 µM (inactive)
GI50 [39]: 13.8 µM (inactive)
GI50 [40]: 15.3 µM (inactive)
GI50 [41]: 30.2 µM (inactive)
GI50 [42]: 19.1 µM (inactive)
GI50 [43]: 35.1 µM (inactive)
GI50 [44]: 20.5 µM (inactive)
GI50 [45]: 18.8 µM
GI50 [46]: 0.111 µM (active)
GI50 [47]: 31.1 µM (inactive)
GI50 [48]: 18.4 µM (inactive)
GI50 [49]: 26 µM (inactive)
GI50 [50]: 21.2 µM (inactive)
GI50 [51]: 47.5 µM (inactive)
GI50 [52]: 28.4 µM (inactive)
GI50 [53]: 22.3 µM (inactive)
GI50 [54]: 21.1 µM (inactive)
GI50 [55]: 26.4 µM (inactive)
GI50 [56]: 16.3 µM (inactive)

Oc1ccc(-c2cn3cc(C(F)(F)F)ccc3n2)cc1
GI50 [1]: 32.1 µM (inactive)
GI50 [2]: 43.3 µM (inactive)
GI50 [3]: 34.8 µM (inactive)
GI50 [4]: 31.6 µM (inactive)
GI50 [5]: 26.7 µM (inactive)
GI50 [6]: 71.8 µM (inactive)
GI50 [7]: 75.5 µM (inactive)
GI50 [8]: 32.1 µM (inactive)
GI50 [9]: 63.2 µM (inactive)
GI50 [10]: 29.6 µM (inactive)
GI50 [11]: 62.2 µM (inactive)
GI50 [12]: 41.5 µM (inactive)
GI50 [13]: > 100 µM (inactive)
GI50 [14]: 51.3 µM (inactive)
GI50 [15]: 26.5 µM (inactive)
GI50 [16]: > 100 µM (inactive)
GI50 [17]: 61.5 µM (inactive)
GI50 [18]: 15.9 µM (inactive)
GI50 [19]: 72.3 µM (inactive)
GI50 [20]: > 100 µM (inactive)
GI50 [21]: 30.6 µM (inactive)
GI50 [22]: 6.84 µM (inactive)
GI50 [23]: 29.9 µM (inactive)
GI50 [24]: 70.1 µM (inactive)
GI50 [25]: 74.3 µM (inactive)
GI50 [26]: > 100 µM (inactive)
GI50 [27]: 18.3 µM (inactive)
GI50 [28]: 41.1 µM (inactive)
GI50 [29]: 49.1 µM (inactive)
GI50 [30]: 76.9 µM (inactive)
GI50 [31]: 55.7 µM (inactive)
GI50 [32]: 89.1 µM (inactive)
GI50 [33]: 17.3 µM (inactive)
GI50 [34]: 41.3 µM (inactive)
GI50 [35]: 35.2 µM (inactive)
GI50 [36]: 30.7 µM (inactive)
GI50 [37]: 46.9 µM (inactive)
GI50 [38]: 37.8 µM (inactive)
GI50 [39]: 26.2 µM (inactive)
GI50 [40]: 22.1 µM (inactive)
GI50 [41]: 38 µM (inactive)
GI50 [57]: 43.2 µM (inactive)
GI50 [42]: 56.4 µM (inactive)
GI50 [43]: 12.1 µM (inactive)
GI50 [44]: 45.2 µM (inactive)
GI50 [45]: 35.6 µM
GI50 [46]: 9.18 µM (inactive)
GI50 [58]: 45.7 µM (inactive)
GI50 [47]: 43.7 µM (inactive)
GI50 [48]: 31.7 µM (inactive)
GI50 [50]: 56.2 µM (inactive)
GI50 [51]: 60.1 µM (inactive)
GI50 [52]: 44.8 µM (inactive)
GI50 [53]: > 100 µM (inactive)
GI50 [54]: > 100 µM (inactive)
GI50 [55]: 41.2 µM (inactive)
GI50 [56]: > 100 µM (inactive)

Sc1nnc(C23CC4CC(CC(C4)C2)C3)n1-c1ccc(Cl)cc1
GI50 [1]: 3.3 µM (inactive)
GI50 [2]: 14.6 µM (inactive)
GI50 [3]: 14.6 µM (inactive)
GI50 [4]: 14.2 µM (inactive)
GI50 [5]: 13.1 µM (inactive)
GI50 [6]: 13.5 µM (inactive)
GI50 [7]: 16.1 µM (inactive)
GI50 [8]: 5.69 µM (inactive)
GI50 [9]: 8.75 µM (inactive)
GI50 [10]: 22.5 µM (inactive)
GI50 [11]: 10.9 µM (inactive)
GI50 [12]: 22.3 µM (inactive)
GI50 [13]: 21.4 µM (inactive)
GI50 [14]: 15.1 µM (inactive)
GI50 [15]: 8.41 µM (inactive)
GI50 [16]: 22.1 µM (inactive)
GI50 [17]: 13.7 µM (inactive)
GI50 [18]: 4.36 µM (inactive)
GI50 [19]: 14.1 µM (inactive)
GI50 [20]: 13 µM (inactive)
GI50 [21]: 20.1 µM (inactive)
GI50 [22]: 22.3 µM (inactive)
GI50 [23]: 15.5 µM (inactive)
GI50 [24]: 19.1 µM (inactive)
GI50 [25]: 23.3 µM (inactive)
GI50 [26]: 27.2 µM (inactive)
GI50 [27]: 17.5 µM (inactive)
GI50 [28]: 9.18 µM (inactive)
GI50 [29]: 7.59 µM (inactive)
GI50 [30]: 35.4 µM (inactive)
GI50 [31]: 16.9 µM (inactive)
GI50 [32]: 11.6 µM (inactive)
GI50 [33]: 20.2 µM (inactive)
GI50 [34]: 10.8 µM (inactive)
GI50 [35]: 9.59 µM (inactive)
GI50 [36]: 14.6 µM (inactive)
GI50 [37]: 11.2 µM (inactive)
GI50 [38]: 15.8 µM (inactive)
GI50 [59]: 8.89 µM (inactive)
GI50 [39]: 3.07 µM (inactive)
GI50 [40]: 13.7 µM (inactive)
GI50 [41]: 27.5 µM (inactive)
GI50 [57]: 4.54 µM (inactive)
GI50 [42]: 12.3 µM (inactive)
GI50 [43]: 15.4 µM (inactive)
GI50 [44]: 13.2 µM (inactive)
GI50 [45]: 7.83 µM
GI50 [46]: 2.77 µM (inactive)
GI50 [58]: 11.1 µM (inactive)
GI50 [47]: 15.6 µM (inactive)
GI50 [48]: 8.26 µM (inactive)
GI50 [49]: 22.7 µM (inactive)
GI50 [51]: 1.96 µM (inactive)
GI50 [52]: 8.34 µM (inactive)
GI50 [53]: 20 µM (inactive)
GI50 [54]: 11.9 µM (inactive)
GI50 [55]: 12.9 µM (inactive)

CC(C)CC1NC(=O)C(C(C)C)NC(=O)CC(C)COC(=O)C(CC(C)C)N(C)C(=O)C(C(C)C)NC(=O)C(C(C)C)OC1=O (stereo not given)
GI50 [1]: > 50 µM (inactive)
GI50 [2]: > 50 µM (inactive)
GI50 [3]: > 50 µM (inactive)
GI50 [4]: 16.1 µM (inactive)
GI50 [5]: > 50 µM (inactive)
GI50 [6]: > 50 µM (inactive)
GI50 [7]: > 50 µM (inactive)
GI50 [8]: > 50 µM (inactive)
GI50 [9]: > 50 µM (inactive)
GI50 [10]: > 50 µM (inactive)
GI50 [11]: 18.2 µM (inactive)
GI50 [13]: 19.7 µM (inactive)
GI50 [14]: 38.5 µM (inactive)
GI50 [15]: > 50 µM (inactive)
GI50 [16]: 26.7 µM (inactive)
GI50 [17]: > 50 µM (inactive)
GI50 [18]: 15.2 µM (inactive)
GI50 [19]: > 50 µM (inactive)
GI50 [20]: 15.2 µM (inactive)
GI50 [21]: > 50 µM (inactive)
GI50 [22]: 10.9 µM (inactive)
GI50 [23]: > 50 µM (inactive)
GI50 [24]: > 50 µM (inactive)
GI50 [25]: 13 µM (inactive)
GI50 [26]: 17.1 µM (inactive)
GI50 [27]: > 50 µM (inactive)
GI50 [28]: 31.2 µM (inactive)
GI50 [29]: > 50 µM (inactive)
GI50 [30]: 37.7 µM (inactive)
GI50 [32]: > 50 µM (inactive)
GI50 [33]: > 50 µM (inactive)
GI50 [34]: > 50 µM (inactive)
GI50 [35]: > 50 µM (inactive)
GI50 [36]: 31.3 µM (inactive)
GI50 [37]: > 50 µM (inactive)
GI50 [38]: 34.7 µM (inactive)
GI50 [39]: > 50 µM (inactive)
GI50 [40]: > 50 µM (inactive)
GI50 [41]: > 50 µM (inactive)
GI50 [57]: 23.5 µM (inactive)
GI50 [42]: > 50 µM (inactive)
GI50 [43]: > 50 µM (inactive)
GI50 [44]: > 50 µM (inactive)
GI50 [45]: > 50 µM
GI50 [58]: 38.4 µM (inactive)
GI50 [47]: > 50 µM (inactive)
GI50 [48]: 16 µM (inactive)
GI50 [49]: 8.28 µM (inactive)
GI50 [50]: > 50 µM (inactive)
GI50 [51]: 48.9 µM (inactive)
GI50 [52]: > 50 µM (inactive)
GI50 [53]: 29.1 µM (inactive)
GI50 [54]: > 50 µM (inactive)
GI50 [55]: > 50 µM (inactive)
GI50 [56]: 26.5 µM (inactive)
